Reference: PubChem BioAssay (NCI)
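A five-concentration, 48-hour dose response in 96-well plates underlies each endpoint, interpolated linearly between surrounding concentrations. GI50 is the concentration that inhibits growth by half. TGI: concentration producing complete growth inhibition.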

Columns and labels:
Experiment in all cases: NCI tumour cell line growth inhibition, 48 h
NCI-H522 lung = tested on: NCI-H522 lung
OVCAR-8 ovarian = tested on: OVCAR-8 ovarian
SW-620 colon = tested on: SW-620 colon
A498 renal = tested on: A498 renal
UACC-257 melanoma = tested on: UACC-257 melanoma
OVCAR-3 ovarian = tested on: OVCAR-3 ovarian
SNB-19 CNS = tested on: SNB-19 CNS
786-0 renal = tested on: 786-0 renal
SF-295 CNS = tested on: SF-295 CNS
NCI/ADR-RES ovarian = tested on: NCI/ADR-RES ovarian
OVCAR-4 ovarian = tested on: OVCAR-4 ovarian
MALME-3M melanoma = tested on: MALME-3M melanoma
HCT-15 colon = tested on: HCT-15 colon
SF-539 CNS = tested on: SF-539 CNS
NCI-H460 lung = tested on: NCI-H460 lung
NCI-H226 lung = tested on: NCI-H226 lung
HS 578T breast = tested on: HS 578T breast
MCF7 breast = tested on: MCF7 breast
SK-OV-3 ovarian = tested on: SK-OV-3 ovarian
EKVX NSCLC = tested on: EKVX NSCLC
UACC-62 melanoma = tested on: UACC-62 melanoma
DU-145 prostate = tested on: DU-145 prostate
SK-MEL-28 melanoma = tested on: SK-MEL-28 melanoma
OVCAR-5 ovarian = tested on: OVCAR-5 ovarian
CCRF-CEM leukemia = tested on: CCRF-CEM leukemia
A549 NSCLC = tested on: A549 NSCLC
ACHN renal = tested on: ACHN renal
SF-268 CNS = tested on: SF-268 CNS
T-47D breast = tested on: T-47D breast
HCT-116 colon = tested on: HCT-116 colon
SK-MEL-5 melanoma = tested on: SK-MEL-5 melanoma
U251 CNS = tested on: U251 CNS
IGROV1 ovarian = tested on: IGROV1 ovarian
SK-MEL-2 melanoma = tested on: SK-MEL-2 melanoma
SN12C renal = tested on: SN12C renal
KM12 colon = tested on: KM12 colon
SNB-75 CNS = tested on: SNB-75 CNS
BT-549 breast = tested on: BT-549 breast
CAKI-1 renal = tested on: CAKI-1 renal
TK-10 renal = tested on: TK-10 renal
HOP-92 NSCLC = tested on: HOP-92 NSCLC
NCI-H23 lung = tested on: NCI-H23 lung
HOP-62 NSCLC = tested on: HOP-62 NSCLC
PC-3 prostate = tested on: PC-3 prostate
HT29 colon = tested on: HT29 colon
RPMI-8226 leukemia = tested on: RPMI-8226 leukemia
M14 melanoma = tested on: M14 melanoma
UO-31 renal = tested on: UO-31 renal
MDA-MB-435 = tested on: MDA-MB-435
COLO 205 colon = tested on: COLO 205 colon
MDA-MB-231 breast = tested on: MDA-MB-231 breast
HL-60(TB) leukemia = tested on: HL-60(TB) leukemia
MOLT-4 leukemia = tested on: MOLT-4 leukemia
LOX IMVI melanoma = tested on: LOX IMVI melanoma
K-562 leukemia = tested on: K-562 leukemia
RXF 393 renal = tested on: RXF 393 renal
HCC-2998 colon = tested on: HCC-2998 colon
SR leukemia = tested on: SR leukemia

## COc1cc(C2=NNC(=O)c3ccccc3N2c2nc(-c3cccs3)nc3ccc(Br)cc23)cc(OC)c1OC
NCI-H522 lung
  TGI: > 100 µM
OVCAR-8 ovarian
  TGI: > 100 µM
SW-620 colon
  TGI: > 100 µM
A498 renal
  TGI: 91.9 µM
UACC-257 melanoma
  TGI: > 100 µM
OVCAR-3 ovarian
  TGI: 27.8 µM
SNB-19 CNS
  TGI: > 100 µM
786-0 renal
  TGI: > 100 µM
SF-295 CNS
  TGI: 31.7 µM
NCI/ADR-RES ovarian
  TGI: 30 µM
OVCAR-4 ovarian
  TGI: 86.4 µM
MALME-3M melanoma
  TGI: 59.1 µM
HCT-15 colon
  TGI: 24 µM
SF-539 CNS
  TGI: 24.2 µM
NCI-H460 lung
  TGI: 14.2 µM
NCI-H226 lung
  TGI: > 100 µM
HS 578T breast
  TGI: 44.1 µM
MCF7 breast
  TGI: 7.28 µM
SK-OV-3 ovarian
  TGI: > 100 µM
EKVX NSCLC
  TGI: 86.4 µM
UACC-62 melanoma
  TGI: > 100 µM
DU-145 prostate
  TGI: 87.9 µM
SK-MEL-28 melanoma
  TGI: 32.3 µM
OVCAR-5 ovarian
  TGI: > 100 µM
CCRF-CEM leukemia
  TGI: > 100 µM
A549 NSCLC
  TGI: > 100 µM
ACHN renal
  TGI: 63.3 µM
SF-268 CNS
  TGI: 58.4 µM
T-47D breast
  TGI: > 100 µM
HCT-116 colon
  TGI: 26.9 µM
SK-MEL-5 melanoma
  TGI: 50.4 µM
U251 CNS
  TGI: 92.9 µM
IGROV1 ovarian
  TGI: > 100 µM
SK-MEL-2 melanoma
  TGI: > 100 µM
SN12C renal
  TGI: > 100 µM
KM12 colon
  TGI: 30.5 µM
SNB-75 CNS
  TGI: > 100 µM
BT-549 breast
  TGI: > 100 µM
CAKI-1 renal
  TGI: 73.1 µM
TK-10 renal
  TGI: 89.9 µM
HOP-92 NSCLC
  TGI: 27.7 µM
NCI-H23 lung
  TGI: 53.4 µM
HOP-62 NSCLC
  TGI: 59.2 µM
PC-3 prostate
  TGI: > 100 µM
HT29 colon
  TGI: 35.9 µM
RPMI-8226 leukemia
  TGI: 12.9 µM
M14 melanoma
  TGI: 73.8 µM
UO-31 renal
  TGI: > 100 µM
MDA-MB-435
  TGI: 68.5 µM
COLO 205 colon
  TGI: > 100 µM
MDA-MB-231 breast
  TGI: > 100 µM

## COc1ccc(C(c2ccc(OCCN(C)C)cc2)c2cc3ccccc3c3ccccc23)cc1 (stereo unspecified)
NCI-H522 lung
  GI50: 1.55 µM
  TGI: 2.98 µM
OVCAR-8 ovarian
  GI50: 1.7 µM
  TGI: 3.17 µM
SW-620 colon
  GI50: 1.69 µM
  TGI: 3.31 µM
A498 renal
  GI50: 0.536 µM
  TGI: 20.9 µM
HL-60(TB) leukemia
  GI50: 1.89 µM
  TGI: 3.75 µM
MOLT-4 leukemia
  GI50: 1.58 µM
  TGI: 3.42 µM
OVCAR-3 ovarian
  GI50: 1.66 µM
  TGI: 3.07 µM
SNB-19 CNS
  GI50: 1.72 µM
  TGI: 3.31 µM
786-0 renal
  GI50: 1.51 µM
  TGI: 2.91 µM
SF-295 CNS
  GI50: 1.77 µM
  TGI: 3.33 µM
NCI/ADR-RES ovarian
  GI50: 1.71 µM
  TGI: 3.39 µM
OVCAR-4 ovarian
  GI50: 1.78 µM
  TGI: 3.39 µM
MALME-3M melanoma
  GI50: 1.55 µM
  TGI: 3.12 µM
HCT-15 colon
  GI50: 1.28 µM
  TGI: 2.69 µM
LOX IMVI melanoma
  GI50: 1.64 µM
  TGI: 3.06 µM
SF-539 CNS
  GI50: 1.7 µM
  TGI: 3.13 µM
NCI-H460 lung
  GI50: 1.79 µM
  TGI: 3.29 µM
NCI-H226 lung
  GI50: 3.43 µM
  TGI: 15.4 µM
HS 578T breast
  GI50: 1.66 µM
  TGI: 3.62 µM
MCF7 breast
  GI50: 1.81 µM
  TGI: 3.61 µM
SK-OV-3 ovarian
  GI50: 6.62 µM
  TGI: 20.4 µM
EKVX NSCLC
  GI50: 1.59 µM
  TGI: 3.3 µM
UACC-62 melanoma
  GI50: 1.81 µM
  TGI: 3.52 µM
DU-145 prostate
  GI50: 1.77 µM
  TGI: 3.37 µM
K-562 leukemia
  GI50: 1.49 µM
  TGI: 3.41 µM
RXF 393 renal
  GI50: 1.44 µM
  TGI: 2.82 µM
SK-MEL-28 melanoma
  GI50: 1.63 µM
  TGI: 3.11 µM
OVCAR-5 ovarian
  GI50: 1.56 µM
  TGI: 3.27 µM
CCRF-CEM leukemia
  GI50: 1.8 µM
  TGI: 3.91 µM
A549 NSCLC
  GI50: 1.66 µM
  TGI: 3.06 µM
ACHN renal
  GI50: 1.7 µM
  TGI: 3.13 µM
SF-268 CNS
  GI50: 1.71 µM
  TGI: 3.26 µM
HCC-2998 colon
  GI50: 1.8 µM
  TGI: 3.34 µM
T-47D breast
  GI50: 1.47 µM
  TGI: 3.12 µM
HCT-116 colon
  GI50: 1.68 µM
  TGI: 3.14 µM
SK-MEL-5 melanoma
  GI50: 1.69 µM
  TGI: 3.11 µM
U251 CNS
  GI50: 1.57 µM
  TGI: 2.92 µM
IGROV1 ovarian
  GI50: 1.68 µM
  TGI: 3.3 µM
SK-MEL-2 melanoma
  GI50: 1.54 µM
  TGI: 2.97 µM
SN12C renal
  GI50: 1.74 µM
  TGI: 3.25 µM
KM12 colon
  GI50: 1.8 µM
  TGI: 3.39 µM
SNB-75 CNS
  GI50: 1.36 µM
  TGI: 2.74 µM
BT-549 breast
  GI50: 1.78 µM
  TGI: 3.35 µM
CAKI-1 renal
  GI50: 1.6 µM
  TGI: 3.01 µM
TK-10 renal
  GI50: 1.64 µM
  TGI: 3.1 µM
HOP-92 NSCLC
  GI50: 1.31 µM
  TGI: 2.64 µM
NCI-H23 lung
  GI50: 1.83 µM
  TGI: 3.8 µM
HOP-62 NSCLC
  GI50: 1.54 µM
  TGI: 3.07 µM
PC-3 prostate
  GI50: 1.76 µM
  TGI: 3.5 µM
HT29 colon
  GI50: 1.6 µM
  TGI: 3.1 µM
RPMI-8226 leukemia
  GI50: 1.93 µM
  TGI: 4.25 µM
M14 melanoma
  GI50: 1.73 µM
  TGI: 3.25 µM
UO-31 renal
  GI50: 1.49 µM
  TGI: 2.9 µM
MDA-MB-435
  GI50: 1.71 µM
  TGI: 3.14 µM
COLO 205 colon
  GI50: 1.77 µM
  TGI: 3.47 µM
MDA-MB-231 breast
  GI50: 1.68 µM
  TGI: 3.22 µM

## COc1ccc2[nH]c3c(c2c1)CCN[C@]31CS[C@@H]2c3c(OC(C)=O)c(C)c4c(c3[C@H](COC1=O)N1[C@@H]2[C@H]2c3c(cc(C)c(OC)c3O)C[C@@H]([C@@H]1O)N2C)OCO4
MOLT-4 leukemia
  TGI: > 100 µM
K-562 leukemia
  TGI: > 100 µM
CCRF-CEM leukemia
  TGI: > 100 µM
ACHN renal
  TGI: 1.12 µM
SR leukemia
  TGI: > 100 µM
CAKI-1 renal
  TGI: 1.68 µM
HOP-92 NSCLC
  TGI: 0.0132 µM
HT29 colon
  TGI: > 100 µM
